# Experimental data taken from PubChem BioAssay (NCI).
#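 Results reflect a 48-hour exposure of cells in 96-well plates to compound at five concentrations. The concentration for full growth arrest is given as TGI.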
# Experiments:
# Test in all cases: DTP human tumour cell line panel, 48 h
# UACC-257 melanoma = system: UACC-257 melanoma
# U251 CNS = system: U251 CNS
# SF-295 CNS = system: SF-295 CNS
# HT29 colon = system: HT29 colon
# SNB-19 CNS = system: SNB-19 CNS
# OVCAR-8 ovarian = system: OVCAR-8 ovarian
# SF-268 CNS = system: SF-268 CNS
# SR leukemia = system: SR leukemia
# K-562 leukemia = system: K-562 leukemia
# HOP-92 NSCLC = system: HOP-92 NSCLC
# DMS 114 small cell lung = system: DMS 114 small cell lung
# SN12C renal = system: SN12C renal
# A549 NSCLC = system: A549 NSCLC
# SW-620 colon = system: SW-620 colon
# DLD-1 colon = system: DLD-1 colon
# UACC-62 melanoma = system: UACC-62 melanoma
# 786-0 renal = system: 786-0 renal
# HCT-116 colon = system: HCT-116 colon
# HCC-2998 colon = system: HCC-2998 colon
# ACHN renal = system: ACHN renal
# MOLT-4 leukemia = system: MOLT-4 leukemia
# EKVX NSCLC = system: EKVX NSCLC
# NCI-H460 lung = system: NCI-H460 lung
# SNB-75 CNS = system: SNB-75 CNS
# RXF-631 renal = system: RXF-631 renal
# CCRF-CEM leukemia = system: CCRF-CEM leukemia
# SK-MEL-5 melanoma = system: SK-MEL-5 melanoma
# CAKI-1 renal = system: CAKI-1 renal
# RXF 393 renal = system: RXF 393 renal
# NCI-H522 lung = system: NCI-H522 lung
# A498 renal = system: A498 renal
# OVCAR-5 ovarian = system: OVCAR-5 ovarian
# RPMI-8226 leukemia = system: RPMI-8226 leukemia
# COLO 205 colon = system: COLO 205 colon
# UO-31 renal = system: UO-31 renal
# SK-MEL-28 melanoma = system: SK-MEL-28 melanoma
# MALME-3M melanoma = system: MALME-3M melanoma
# XF 498 CNS = system: XF 498 CNS
# TK-10 renal = system: TK-10 renal
# SK-OV-3 ovarian = system: SK-OV-3 ovarian
# HCT-15 colon = system: HCT-15 colon
# NCI-H226 lung = system: NCI-H226 lung
# DMS 273 small cell lung = system: DMS 273 small cell lung
# KM12 colon = system: KM12 colon
# M14 melanoma = system: M14 melanoma
# HL-60(TB) leukemia = system: HL-60(TB) leukemia
# LOX IMVI melanoma = system: LOX IMVI melanoma
# SF-539 CNS = system: SF-539 CNS
# HOP-18 NSCLC = system: HOP-18 NSCLC
# OVCAR-3 ovarian = system: OVCAR-3 ovarian
# SK-MEL-2 melanoma = system: SK-MEL-2 melanoma
# SNB-78 CNS = system: SNB-78 CNS
# KM20L2 colon = system: KM20L2 colon
# HOP-62 NSCLC = system: HOP-62 NSCLC
# LXFL 529 NSCLC = system: LXFL 529 NSCLC
# IGROV1 ovarian = system: IGROV1 ovarian
# NCI-H23 lung = system: NCI-H23 lung
# OVCAR-4 ovarian = system: OVCAR-4 ovarian
# M19-MEL melanoma = system: M19-MEL melanoma
smiles,measurement,setting,value
COc1cc(C2C(C(=O)Nc3ccc([N+](=O)[O-])cc3)=C(C)NC(C)=C2C(=O)Nc2ccc([N+](=O)[O-])cc2)ccc1O,TGI,UACC-257 melanoma,54.6 µM
same,TGI,U251 CNS,33.8 µM
same,TGI,SF-295 CNS,65.7 µM
same,TGI,HT29 colon,38.1 µM
same,TGI,SNB-19 CNS,> 73.9 µM
same,TGI,OVCAR-8 ovarian,> 54.2 µM
same,TGI,SF-268 CNS,> 72.6 µM
same,TGI,SR leukemia,> 44.1 µM
same,TGI,K-562 leukemia,81.6 µM
same,TGI,HOP-92 NSCLC,57 µM
same,TGI,DMS 114 small cell lung,> 74.5 µM
same,TGI,SN12C renal,36.4 µM
same,TGI,A549 NSCLC,> 100 µM
same,TGI,SW-620 colon,52.3 µM
same,TGI,DLD-1 colon,> 68.6 µM
same,TGI,UACC-62 melanoma,42 µM
same,TGI,786-0 renal,> 100 µM
same,TGI,HCT-116 colon,30.9 µM
same,TGI,HCC-2998 colon,40.3 µM
same,TGI,ACHN renal,> 67.2 µM
same,TGI,MOLT-4 leukemia,75.4 µM
same,TGI,EKVX NSCLC,> 100 µM
same,TGI,NCI-H460 lung,> 62.1 µM
same,TGI,SNB-75 CNS,> 86.3 µM
same,TGI,RXF-631 renal,> 100 µM
same,TGI,CCRF-CEM leukemia,> 100 µM
same,TGI,SK-MEL-5 melanoma,> 100 µM
same,TGI,CAKI-1 renal,> 86.6 µM
same,TGI,RXF 393 renal,39 µM
same,TGI,NCI-H522 lung,39.7 µM
same,TGI,A498 renal,99.8 µM
same,TGI,OVCAR-5 ovarian,> 95.8 µM
same,TGI,RPMI-8226 leukemia,59.6 µM
same,TGI,COLO 205 colon,30.9 µM
same,TGI,UO-31 renal,46.3 µM
same,TGI,SK-MEL-28 melanoma,31.3 µM
same,TGI,MALME-3M melanoma,60 µM
same,TGI,XF 498 CNS,69.1 µM
same,TGI,TK-10 renal,68.7 µM
same,TGI,SK-OV-3 ovarian,77.8 µM
same,TGI,HCT-15 colon,50.8 µM
same,TGI,NCI-H226 lung,> 63.2 µM
same,TGI,DMS 273 small cell lung,53.3 µM
same,TGI,KM12 colon,39 µM
same,TGI,M14 melanoma,> 60.5 µM
same,TGI,HL-60(TB) leukemia,> 100 µM
same,TGI,LOX IMVI melanoma,31.5 µM
same,TGI,SF-539 CNS,41.1 µM
same,TGI,HOP-18 NSCLC,> 74.2 µM
same,TGI,OVCAR-3 ovarian,55.7 µM
same,TGI,SK-MEL-2 melanoma,34.7 µM
same,TGI,SNB-78 CNS,> 100 µM
same,TGI,KM20L2 colon,34.7 µM
same,TGI,HOP-62 NSCLC,35 µM
same,TGI,LXFL 529 NSCLC,64 µM
same,TGI,IGROV1 ovarian,65.4 µM
same,TGI,NCI-H23 lung,> 77.1 µM
same,TGI,OVCAR-4 ovarian,> 70.8 µM
same,TGI,M19-MEL melanoma,43.3 µM
Cn1c2[n+](c3nc(N)[nH]c(=O)c31)C1OC(C2)C(O)C1O (stereo not given),TGI,UACC-257 melanoma,> 100 µM
same,TGI,U251 CNS,> 100 µM
same,TGI,SF-295 CNS,> 100 µM
same,TGI,HT29 colon,> 100 µM
same,TGI,SNB-19 CNS,> 100 µM
same,TGI,OVCAR-8 ovarian,> 100 µM
same,TGI,SF-268 CNS,> 100 µM
same,TGI,SR leukemia,> 100 µM
same,TGI,K-562 leukemia,> 100 µM
same,TGI,HOP-92 NSCLC,> 100 µM
same,TGI,DMS 114 small cell lung,> 100 µM
same,TGI,SN12C renal,> 100 µM
same,TGI,A549 NSCLC,> 100 µM
same,TGI,SW-620 colon,> 100 µM
same,TGI,DLD-1 colon,> 100 µM
same,TGI,UACC-62 melanoma,> 100 µM
same,TGI,786-0 renal,> 100 µM
same,TGI,HCT-116 colon,> 100 µM
same,TGI,HCC-2998 colon,> 100 µM
same,TGI,ACHN renal,> 100 µM
same,TGI,MOLT-4 leukemia,> 100 µM
same,TGI,EKVX NSCLC,> 100 µM
same,TGI,SNB-75 CNS,> 100 µM
same,TGI,RXF-631 renal,> 100 µM
same,TGI,CCRF-CEM leukemia,> 100 µM
same,TGI,SK-MEL-5 melanoma,> 100 µM
same,TGI,CAKI-1 renal,> 100 µM
same,TGI,RXF 393 renal,> 100 µM
same,TGI,NCI-H522 lung,> 100 µM
same,TGI,A498 renal,> 100 µM
same,TGI,OVCAR-5 ovarian,> 100 µM
same,TGI,COLO 205 colon,> 100 µM
same,TGI,UO-31 renal,> 100 µM
same,TGI,SK-MEL-28 melanoma,> 100 µM
same,TGI,MALME-3M melanoma,> 100 µM
same,TGI,XF 498 CNS,> 100 µM
same,TGI,TK-10 renal,> 100 µM
same,TGI,SK-OV-3 ovarian,> 100 µM
same,TGI,NCI-H226 lung,> 100 µM
same,TGI,DMS 273 small cell lung,> 100 µM
same,TGI,KM12 colon,> 100 µM
same,TGI,M14 melanoma,> 100 µM
same,TGI,HL-60(TB) leukemia,> 100 µM
same,TGI,LOX IMVI melanoma,> 100 µM
same,TGI,SF-539 CNS,> 100 µM
same,TGI,HOP-18 NSCLC,> 100 µM
same,TGI,OVCAR-3 ovarian,> 100 µM
same,TGI,SK-MEL-2 melanoma,> 100 µM
same,TGI,SNB-78 CNS,> 100 µM
same,TGI,KM20L2 colon,> 100 µM
same,TGI,HOP-62 NSCLC,> 100 µM
same,TGI,LXFL 529 NSCLC,> 100 µM
same,TGI,IGROV1 ovarian,> 100 µM
same,TGI,NCI-H23 lung,> 100 µM
same,TGI,OVCAR-4 ovarian,> 100 µM
same,TGI,M19-MEL melanoma,> 100 µM
